From patent US6417178B1, “Amyloid binding nitrogen-linked compounds for the antemortem diagnosis of alzheimer's disease, in vivo imaging and prevention of amyloid deposits” (University of Pittsburgh, priority 1994, dated 2002)
Several values for one entry are separate records, joined by “and”; a condition that tells them apart may be missing. Equal entries are not always repeated. Where two headings read alike, the source gives them in different places.

Columns and labels:
[1] = target: T1, synthetic peptide, Aβ (10-43) (Homo sapiens, UniProt P05067); test: Inhibition of [14C]Chrysamine G binding to Aβ (10-43); settings: for binding affinity in words: inhibition of [14C]Chrysamine G binding to Aβ (10-43), compared with Chrysamine G
T1 construct: The 10-43 amino acid fragment of Aβ was synthesized; made in house; host or cells: chemical (FMOC) peptide synthesis, no expression host
T1 sequence (P05067 681-714): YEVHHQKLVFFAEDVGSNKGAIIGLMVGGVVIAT
Method: (§1) Binding assays were performed in 12×75 mm borosilicate glass tubes. […] To the above solution, 25 μl of a 0.36 mg/ml suspension of Aβ (10-43) in H2O was added and 10% ethanol was added to bring the volume to 950 μl. […] The binding mixture was incubated for 30 min at room temperature.
Ki is defined as IC50/(1+[L]/KD ), where [L] is the concentration of [^14C]

[2] = Octanol/water partitioning; type: physicochemical; settings: for octanol/water partition coefficient: 1-octanol / phosphate buffered saline pH 7.4
Method: The mixture was then centrifuged at 1,000 g to facilitate the formation of two clear phases. […] Concentrations were determined after correction for the molar absorptivity differences in the two solvents and the partition coefficient expressed as the concentration in the octanol layer divided by the concentration in the aqueous layer. Experiments were done in triplicate.

[3] = target: synthetic Aβ (10-43) peptide (Homo sapiens, UniProt P05067); test: Scatchard analysis of Chrysamine G binding to synthetic Aβ (10-43)
Chain of synthetic Aβ (10-43) peptide (P05067 681-714): as above
Description: Hilbich et al., J. Mol. Biol. 218: 149 (1991). The 10-43 amino acid fragment of Aβ was synthesized with 9-fluorenylmethyl chloroformate (FMOC) chemistry by the Peptide Synthesis Facility of the University of Pittsburgh. […] The peptide was further purified by the method of Hilbich et al. which, in brief, consisted of sequential size-exclusion chromatography on a Biogel P10 column (2×180 cm, 200-400 mesh, Biorad, Richmond, Calif.) in 70% formic acid followed by a second elution through a Biogel P4 column (2×180 cm, 200-400 mesh) in 1M acetic acid. Hilbich et al., J. Mol. Biol. 218: 149 (1991). The peptide was lyophilized and stored at −80° C. until used in the binding assays.
as §1

Aβ (10-43) = Aβ (10-43) (Homo sapiens, UniProt P05067); test: Kinetics of [14C]Chrysamine G binding to Aβ (10-43)
Chain of Aβ (10-43) (P05067 681-714): as above
Method: This mixture was vortexed and incubated for 30 min at room temperature.
Bennett, J. P. and Yamamura, H. I. in NEUROTRANSMITTER RECEPTOR BINDING (N.Y.: Raven Press 1985) pp. 61-89. […] The curve in FIG. 6C follows the equation: […]

[4] = test system: control brain homogenates; test: [14C]CG binding to control brain homogenates; design: species or system human
[5] = test system: Down's syndrome brain samples; test: [14C]Chrysamine G binding to Down's syndrome brain samples; design: species or system human; settings: two patients; ratio to cerebellum (FIG. 9C)
Description: Down's syndrome patients all develop deposits of Aβ by their fourth decade and many develop AD. Wisniewski et al., Neurology 35: 957 (1985); Schapiro et al., Neurobiol. Aging 13, 723 (1992).

[6] = Tissue levels after i.v. injection of [14C]Chrysamine G in mice (blood-brain barrier, metabolism); type: in vivo, Swiss-Webster mice; settings: brain and liver extracted 60 min after i.v. injection
Method: Mice were sacrificed by cervical dislocation at intervals of 15 min, 35 min, 1 hr, 4 hr, and 24 hr after injection. The carotid blood, brain, liver, and kidneys were rapidly obtained, weighed, and homogenized in distilled/deionized H2O using a ground glass homogenizer. An aliquot was weighed into an 18.0 ml plastic scintillation vial (Beckman Poly-Q-Vial) and counted after addition of 10.0 ml of scintillation cocktail (Cytoscint®-ES (ICN)) and overnight equilibration.
Brain and liver were then removed and extracted with a Folch procedure. Folch et al., J. Biol. Chem. 226: 447 (1957). In both tissues, over 95% of the extracted radioactivity was contained in the organic layer. The organic layer was evaporated to dryness, resuspended in a minimal amount of 10% methanol/90% ACN, and injected onto a silica column (Prep Nova Pak HR Silica, 7.8×300 mm, Waters, Milford, Mass.) and eluted isocratically with the same solvent. Under these conditions, 99% of the radioactivity is eluted in the solvent front, but most lipids are retained longer, making the fraction eluting in the solvent front suitable for injection onto the reverse-phase C4 column system described above. […] One minute fractions were collected and counted after addition of 10 ml of Cytoscint®-ES.

[7] = test system: rat pheochromocytoma (PC-12) cells; settings: for effect on toxicity induced by 1 μM Aβ (25-35): MTT reduction (FIG. 14)
Method: Rat pheochromocytoma cells (PC-12) were grown in RPMI 1640 media with 10% fetal bovine serum. Approximately 5,000 exponentially growing cells were plated in 96-well plates in a volume of 100 μl of media and allowed to incubate at 37° C. overnight. […] The cells were incubated for 24 hrs prior to the addition of 13.3 μl of 5 mg/ml MTT (3,(4,5-dimethylthiazol-2-yl)2,5-diphenyltetrazolium bromide) in sterile phosphate buffered saline. After 4.5 hrs at 37° C., 100 μl of extraction buffer (20% w/v SDS in 50% DMF/water; pH adjusted to 4.7 with 2.5% of 80% acetic acid and 2.5% 1N HCl) was added and the plates were incubated overnight. Hansen et al., J. Immunol. Methods 119: 203 (1989). Color development was then measured at 560 nm. Maximum viability was defined as the absorbance of control wells to which only the 20 μl of distilled, deionized H2O was added. Maximum toxicity was defined by wells in which the cells were lysed by addition of 0.1% (final concentration) of Triton X-100.

in vivo = settings: mouse
AD brain homogenates [8] = target: AD brain homogenates (Homo sapiens, UniProt P05067); test: [14C]CG binding to AD brain homogenates
Chain of AD brain homogenates (Homo sapiens, UniProt P05067) (P05067 18-770): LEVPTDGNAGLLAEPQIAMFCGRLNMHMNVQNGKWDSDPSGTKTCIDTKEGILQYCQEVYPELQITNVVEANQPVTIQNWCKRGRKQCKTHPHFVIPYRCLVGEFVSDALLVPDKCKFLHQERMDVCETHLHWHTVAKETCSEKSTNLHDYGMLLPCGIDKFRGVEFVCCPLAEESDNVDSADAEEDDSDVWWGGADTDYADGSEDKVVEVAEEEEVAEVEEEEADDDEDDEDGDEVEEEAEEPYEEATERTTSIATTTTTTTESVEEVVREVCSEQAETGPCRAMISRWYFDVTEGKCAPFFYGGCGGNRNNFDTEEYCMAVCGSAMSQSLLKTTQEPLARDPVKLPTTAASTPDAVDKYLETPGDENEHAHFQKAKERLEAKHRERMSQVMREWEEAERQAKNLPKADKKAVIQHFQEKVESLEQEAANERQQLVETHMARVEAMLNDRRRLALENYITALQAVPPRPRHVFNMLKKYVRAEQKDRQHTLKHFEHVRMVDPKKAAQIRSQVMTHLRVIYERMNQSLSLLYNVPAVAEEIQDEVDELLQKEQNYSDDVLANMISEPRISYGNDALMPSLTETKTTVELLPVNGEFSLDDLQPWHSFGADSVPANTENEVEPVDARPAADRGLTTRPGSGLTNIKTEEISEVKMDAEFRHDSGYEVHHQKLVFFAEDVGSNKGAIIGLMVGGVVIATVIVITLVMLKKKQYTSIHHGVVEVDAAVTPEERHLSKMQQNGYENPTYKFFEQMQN
Method: (§2) Autopsy brain samples were obtained from the Neuropathology Core of the Alzheimer's Disease Research Center of the University of Pittsburgh. […] Brain samples from eight control (ages 58-75), eleven AD (ages 61-84), and two Down syndrome brains were studied. There were six high-plaque (>20 NPs/×200 magnification) and five low-plaque (<20 NPs/×200 magnification) AD brains. […] Autopsy samples were immediately frozen at −70° C. and stored at that temperature until homogenized. […] The Bielschowsky silver impregnation method was used to identify NPs and NFTs and Congo red staining was used to identify cerebral amyloid angiopathy.
(§3) Aliquots of 25-150 μl tissue (about 25-300 μg of protein by the method of Lowry et al., J. Biol, Chem. 193: 265 (1951)) were incubated in 12×75 mm borosilicate glass tubes at room temperature with 10-750 nM [^14C]CG (26.8 Ci/mole) in a final volume of 1.0 ml of 10% ethanol for 30 min at room temperature. The standard conditions employed about 150 μg of protein and 75 nM [^14C]CG for the cerebellar ratio studies and about 75 μg of protein and 150 nM [^14C]CG for the correlative studies with NPs, NFTS, and amyloid angiopathy. Ethanol was necessary to prevent the micelle formation which occurs with diazo dye derivatives, since the micelles are trapped by the filter even in the absence of tissue. Bound and free radioactivity were separated by vacuum filtration through Whatman GF/B filters using a Brandel M-24R Cell Harvester (Gaithersburg, Md.) followed by two 3-ml washes with 10% ethanol at room temperature. Filters were equilibrated overnight in 4 ml Cytoscint®-ES scintillant (ICN Biomedicals, Inc., Irvine, Calif.) in 7.0 ml plastic scintillation vials before counting. Saturable (specific) binding was defined as total binding minus residual (non-saturable) binding in the presence of 20 μM unlabelled CG. In all binding assays, incubations were done at least in triplicate and the results expressed as mean±standard error unless otherwise specified. Results were expressed either in absolute terms of fmol [^14C]CG bound/μg protein in a given brain area, or as a ratio of the fmol/μg protein in that brain area to the fmol/μg protein in the cerebellum of the same brain.

AD brain homogenates [9] = test: [14C]CG binding to AD brain homogenates; settings: for total binding, AD: high and low-plaque AD brains combined
Method: as §2, §3

[10] = guinea pigs; cited from earlier work
[11] = test system: rat pheochromocytoma (PC-12) cells; settings: previously reported; cited from earlier work
[12] = Ki for inhibition of [14C]Chrysamine G binding to Aβ (10-43), Ki=IC50/(1+[L]/KD), KD 0.26 μM
[13] = PC-12 cells, Aβ (25-35), MTT reduction

O=C(O)c1cc(N=Nc2ccc(-c3ccc(N=Nc4ccc(O)c(C(=O)O)c4)cc3S(=O)(=O)O)c(S(=O)(=O)O)c2)ccc1O [2,2′-(SO3)2CG]
binding affinity in words [1]: inactivity

O=C(O)c1cc(N=Nc2ccc(-c3ccc(N=Nc4ccc(O)c(C(=O)O)c4)c(C(=O)O)c3)cc2C(=O)O)ccc1O [3,3′-(COOH)2CG]
decrease in affinity / loss of activity relative to Chrysamine G [1]: 7 fold

O=C(O)c1cc(N=Nc2ccc(-c3ccc(N=Nc4ccc(O)c(C(=O)O)c4)c(Br)c3)cc2Br)ccc1O [3,3′-Br2CG]
binding affinity in words [1]: about half that of Chrysamine G

O=C(O)c1cc(N=Nc2ccc(-c3ccc(N=Nc4ccc(O)c(C(=O)O)c4)c(Cl)c3)cc2Cl)ccc1O [3,3′-Cl2CG]
binding affinity in words [1]: about half that of Chrysamine G

O=C(O)c1cc(N=Nc2ccc(-c3ccc(N=Nc4ccc(O)c(C(=O)O)c4)c(I)c3)cc2I)ccc1O [3,3′-I2CG]
binding affinity in words [1]: about half that of Chrysamine G
octanol/water partition coefficient [2]: 112.9±7.3

O=C(O)c1cc(F)cc(N=Nc2ccc(-c3ccc(N=Nc4cc(F)cc(C(=O)O)c4O)cc3)cc2)c1O [(5-FSA)CG, 4,4′-bis(2-hydroxy-3-carboxy-5-fluorophenylazo)-biphenyl]
Ki [1, 12]: 1160 ± 190 nM
binding affinity in words [1]: one-third as potent as Chrysamine G

COC(=O)c1cc(N=Nc2ccc(-c3ccc(N=Nc4ccc(O)c(C(=O)OC)c4)cc3)cc2)ccc1O [CG(COOMe)2, 4,4′-bis(3-methoxycarbonyl-4-hydroxyphenylazo)-biphenyl]
decrease in affinity / loss of activity relative to Chrysamine G [1]: about 200 fold

O=C(O)c1cc(N=Nc2ccc(-c3ccc(N=Nc4ccc(O)c(C(=O)O)c4)cc3)cc2)ccc1O [Chrysamine G, 4,4′-bis(3-carboxy-4-hydroxyphenylazo)-biphenyl]
Kd ([3]; Scatchard, two independent binding site model, read-out: KD, higher affinity component): 257 nM and 260 nM
Bmax, higher affinity component ([3]; Scatchard, two-site model): 3.18 nmoles Chrysamine G/mg Aβ (10-43)
Bmax, lower affinity component ([3]; Scatchard, two-site model, less well defined): 18.7 nmoles Chrysamine G/mg Aβ (10-43)
Kd ([3]; whether measured by Scatchard analysis, kinetic methods, or inhibition of binding, read-out: dissociation constant): 250 to 400 nM
time by which association is essentially complete (Aβ (10-43); [Chrysamine G]=112 μM): ≤ 1 min
Kd (Aβ (10-43); from kinetic constants, read-out: KD=k−1/k1): 340 nM
Ki [1, 12]: 370 ± 40 nM
energy of binding ([1]; ΔG=−RT ln Keq, Keq=1/KD≈1/Ki): roughly 38 KJ/mole
Bmax, typical control brain sample (FIG. 4B) [4]: 614 fmol/μg protein
total binding, Control ([4]; Cerebellum): 75 ± 13 (n = 8) fmol/μg protein
Bmax (pmol/μg prot) ([4]; Control (n = 6)): 0.576 ± .092 pmol/μg prot
Kd ([4]; Control (n = 6), read-out: KD): 470 ± 49 nM
total binding, Control ([4]; Frontal Pole): 58 ± 8 (n = 6) fmol/μg protein
total binding, Control ([4]; Head of Caudate): 73 ± 11 (n = 4) fmol/μg protein
total binding, Control ([4]; Inferior Parietal): 76 ± 13 (n = 8) fmol/μg protein
total binding, Control ([4]; Occipital): 64 ± 16 (n = 8) fmol/μg protein
total binding, Control ([4]; Superior Temporal): 66 ± 17 (n = 8) fmol/μg protein
total binding, Control ([4]; Superior/Middle Frontal): 54 ± 10 (n = 8) fmol/μg protein
Kd ([4]; read-out: KD, typical control brain sample (FIG. 4B)): 480 nM
binding in Down's syndrome brain compared with control [5]: above the control range
times more lipophilic than Congo red ([2]; from partition coefficients): approximately 90
recovered radioactivity co-eluting with authentic Chrysamine G on reverse phase HPLC [6]: > 95%
MTT reduction with compound alone versus control [7]: no significant difference
concentration at which the protective effect is evident [7, 13]: 0.2 µM
concentration range showing effects [7, 13]: 0.1 to 1.0 µM
effect on toxicity induced by 1 μM Aβ (25-35) ([7]; PC-12 cells): protective effects at 0.1 and 1 μM
LD50 at 72 h (in vivo): > 100 mg/kg
Bmax (pmol/μg prot) (AD brain homogenates [8]; AD (n = 5)): 0.784 ± .061 pmol/μg prot
Bmax, typical AD brain sample (FIG. 4B) (AD brain homogenates [8]; AD brain sample with 48 NP/×200 magnification): 790 fmol/μg protein
saturable (specific) binding as share of total binding (AD brain homogenates [9]; AD brain homogenates): 60-80%
total binding, AD (AD brain homogenates [9]; Cerebellum): 73 ± 9 (n = 11) fmol/μg protein
total binding, AD (AD brain homogenates [9]; Frontal Pole): 124 ± 16 (n = 10) fmol/μg protein
total binding, AD (AD brain homogenates [9]; Head of Caudate): 123 ± 22 (n = 7) fmol/μg protein
total binding, AD (AD brain homogenates [9]; Inferior Parietal): 137 ± 19 (n = 11) fmol/μg protein
total binding, AD (AD brain homogenates [9]; Occipital): 95 ± 12 (n = 11) fmol/μg protein
total binding, AD (AD brain homogenates [9]; Superior Temporal): 121 ± 14 (n = 11) fmol/μg protein
total binding, AD (AD brain homogenates [9]; Superior/Middle Frontal): 130 ± 21 (n = 11) fmol/μg protein
Bmax in AD brain higher than control (AD brain homogenates [9]; not significant (p=0.09)): 36%
KD in AD brain lower than control (AD brain homogenates [9]; not significant (p=0.29)): 16%

Nc1c(/N=N/c2ccc(-c3ccc(/N=N/c4cc(S(=O)(=O)O)c5ccccc5c4N)cc3)cc2)cc(S(=O)(=O)O)c2ccccc12 [Congo red, reference compound]
Ki [1, 12]: 2820 nM and 2800 nM
octanol/water partition coefficient [2]: 0.665±0.037
brain/kidney ratio [10]: approximately 0.07
concentration achieving complete protection [11]: 20 µM
concentrations protecting against Aβ-induced toxicity [11]: over 2 μM

O=C(O)c1cc(N=Nc2ccccc2)ccc1O [aniline derivative]
energy of binding [1]: 5.5 kcal/mol
Ki ([1]; read-out: Ki for inhibition of [14C]Chrysamine G binding to Aβ (10-43)): 73000 nM

Oc1ccc(N=Nc2ccc(-c3ccc(N=Nc4ccc(O)cc4)cc3)cc2)cc1 [phenol derivative]
binding affinity in words [1]: completely destroyed binding affinity
effect on toxicity induced by 1 μM Aβ (25-35) ([7]; PC-12 cells): no protective effects

O=C(O)c1ccccc1O [salicylic acid, reference compound]
binding affinity in words [1]: total lack of binding activity

Cc1cc(-c2cc(C)c(N=Nc3ccc(O)c(C(=O)O)c3)c(C)c2)cc(C)c1N=Nc1ccc(O)c(C(=O)O)c1 [tetramethyl analog of Chrysamine G, 4,4′-bis(3-carboxy-4-hydroxyphenylazo)-3,3′,5,5′-tetramethylbiphenyl]
Ki [1, 12]: 750 ± 90 nM
binding affinity in words [1]: about twice that of Chrysamine G
